These results are taken from patent publication US10478425B2, “5-phenylazaindole derivative having AMPK-activating activity” (Shionogi & Co., Ltd., priority 2016, dated 2019).

Usually Emax stands for the maximal effect, on the per cent scale that the assay sets.

This assay deals with T1, Human AMPK α2β2γ1 (Homo sapiens, UniProt O43741+P54646).
T1 construct: The full length cDNAs of human AMPK β2 (NM_005399.3) and human AMPK α2 (NM_006252.3); The full length cDNAs of human AMPK β2 (NM_005399.3); the full length cDNA of human AMPK γ1 (NM_002733.3) had been inserted into pET28b(+); 6×His (N); made in house; host or cells: Escherichia coli BL21 CodonPlus (DE3)-RIL
T1 sequence (P54646 whole entry): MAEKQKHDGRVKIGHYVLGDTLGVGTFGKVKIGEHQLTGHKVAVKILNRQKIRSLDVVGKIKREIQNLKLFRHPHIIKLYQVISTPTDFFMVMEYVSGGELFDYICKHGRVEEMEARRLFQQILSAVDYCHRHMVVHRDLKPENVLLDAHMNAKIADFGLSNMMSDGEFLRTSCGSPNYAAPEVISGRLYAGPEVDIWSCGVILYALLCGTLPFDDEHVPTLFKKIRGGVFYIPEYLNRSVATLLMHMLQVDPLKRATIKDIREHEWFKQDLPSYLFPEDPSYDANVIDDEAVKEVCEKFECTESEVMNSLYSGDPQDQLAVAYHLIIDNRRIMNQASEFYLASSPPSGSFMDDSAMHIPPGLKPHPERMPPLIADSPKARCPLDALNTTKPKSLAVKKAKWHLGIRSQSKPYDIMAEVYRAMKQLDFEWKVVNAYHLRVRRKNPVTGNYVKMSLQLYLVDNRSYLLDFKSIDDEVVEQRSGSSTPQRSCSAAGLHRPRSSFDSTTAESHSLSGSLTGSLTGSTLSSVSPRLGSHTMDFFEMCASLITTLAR
T1 sequence (O43741 whole entry): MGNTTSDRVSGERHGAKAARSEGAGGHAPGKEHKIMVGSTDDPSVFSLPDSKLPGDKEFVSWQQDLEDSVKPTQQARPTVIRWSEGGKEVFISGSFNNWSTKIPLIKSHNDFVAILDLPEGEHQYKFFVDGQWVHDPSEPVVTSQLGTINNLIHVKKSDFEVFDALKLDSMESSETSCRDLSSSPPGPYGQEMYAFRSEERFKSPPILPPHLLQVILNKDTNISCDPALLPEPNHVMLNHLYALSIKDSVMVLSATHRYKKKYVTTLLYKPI
T1 sequence (P54619 whole entry partner): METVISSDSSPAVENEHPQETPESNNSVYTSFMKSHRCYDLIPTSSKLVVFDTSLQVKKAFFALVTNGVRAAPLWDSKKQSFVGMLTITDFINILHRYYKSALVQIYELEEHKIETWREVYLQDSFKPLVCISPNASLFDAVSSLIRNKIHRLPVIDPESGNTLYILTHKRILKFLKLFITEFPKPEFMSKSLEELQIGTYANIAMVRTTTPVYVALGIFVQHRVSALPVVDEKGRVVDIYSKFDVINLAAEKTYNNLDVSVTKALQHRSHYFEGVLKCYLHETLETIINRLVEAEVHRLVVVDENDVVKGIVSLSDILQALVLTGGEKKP
Description: Test Example 2: activation of phosphorylated human AMPK α2β2γ1 (mobility-shift kinase assay, FL-Peptide 7). It counts as biochemical. Conditions: for EC150: compound concentration showing 150% relative to the control (100%), human AMPK α2β2γ1 phosphorylated with CaMKK2; for Emax: maximum rate of increase in activity within the measurement range, control = 100%, read-out: Emax. How it is done: The full length cDNAs of human AMPK β2 (NM_005399.3) and human AMPK α2 (NM_006252.3) were inserted into the MCS1 and MCS2 of the pETDuet-1 vector to prepare a human AMPK β2 and human AMPK α2 (6×His tag at the 5′ terminus) expressing plasmid. The plasmid was cotransfected with an expression plasmid, in which the full length cDNA of human AMPK γ1 (NM_002733.3) had been inserted into pET28b(+), into BL21 CodonPlus (DE3)-RIL to obtain an expression strain. The expression strain was cultured in TB medium, followed by induction with 0.5 mM IPTG, and cultured at 25° C. for 3 hours and then harvested. After ultrasonication, supernatant was collected and applied to Histrap FF column (GE) and RESOUECE Q column (GE) to prepare 12.5 mg of purified sample containing three types of subunit from 1.8 L of broth.
An expression vector, in which the full length cDNA of human CAMKK β (NM_172226.1) had been inserted into pGEX-6P-3, was transfected into BL21 Star (DE3). The expression strain was cultured in TB medium, followed by induction with 0.5 mM IPTG, and cultured at 25° C. for 3 hours and then harvested. After ultrasonication, supernatant was collected and applied to GSTrap FF column (GE) to prepare 14 mg of GST-fused CAMKK β from 720 ml of broth.
Thus, phosphorylation treatment was carried out as pretreatment.
Human AMPK α2β2γ1 in an amount to give a conversion rate of approximately 10% by reaction for 2 hours, and CaMKK2 in an amount capable of sufficiently imparting activity to AMPK for one hour were mixed in a buffer solution consisting of a 50 mM HEPES-NaOH buffer solution (pH 7.0), 100 mM NaCl, 5 mM magnesium chloride, 0.1% bovine serum albumin, 0.2 mM sodium orthovanadate(V), 1 mM ethylene glycol-bis(2-aminoethyl ether)-N,N,N′,N′-tetraacetic acid (EGTA), 5 mM disodium β-glycerophosphate, 1 mM dithiothreitol and 0.2 mM ATP, and the resulting liquid was left to stand at 25° C. for 1 to 1.5 hours to sufficiently phosphorylate AMPK.
After that, to the enzyme liquid, which had been subjected to phosphorylation treatment, a compound dissolved in DMSO was added so as to have a 1% DMSO concentration. The resulting liquid was left to stand for 10 minutes.
To the liquid, a substrate solution consisting of a 50 mM HEPES-NaOH buffer solution (pH 7.0), 100 mM NaCl, 10 mM magnesium chloride, 0.1% bovine serum albumin, 0.2 mM sodium orthovanadate(V), 1 mM ethylene glycol-bis(2-aminoethyl ether)-N,N,N′,N′-tetraacetic acid (EGTA), 5 mM disodium β-glycerophosphate, 2 mM dithiothreitol, 0.4 mM ATP and 3 μM FL-Peptide 7 (manufactured by Caliper Life Sciences, Inc.) was added in equal amount (10 μl in total). The resulting liquid was allowed to react at 25° C. for 2 hours, then 10 μl of 20 mM EDTA was added thereto to stop the reaction.
To detect phosphorylated fluorescent substrates, the reaction mixture was applied to a measuring device, LabChip EZ Reader II manufactured by Caliper Life Science, Inc., for detecting fluorescence by using differences in mobility due to differences in charge. The setting conditions for the device were pressure, −1.5 PSI; upstream voltage, −2250 V; downstream voltage, −400 V; post sample buffer sip time, 40 seconds; final delay, 120 seconds; and peak order, Product First.
A conversion rate was calculated from the peak heights of the obtained substrate and product. The conversion rate when not containing a compound was used as a control, and a concentration dependent curve was made by plotting the rate of increase in activity to the control at each concentration of a compound.

As to `O[C@@H]1CO[C@H]2[C@@H]1OC[C@H]2Oc1cc2nc(-c3ccc(C#CC4CCNCC4)cc3)c(F)cc2[nH]1` [Compound I-2-64], the EC150 was 16 nM and the Emax was 536%.

Turning to `O[C@@H]1CO[C@H]2[C@@H]1OC[C@H]2Oc1cc2nc(-c3ccc(-c4ccc(OC5CNCC5F)cc4)cc3)c(F)cc2[nH]1` (stereo partly drawn) [Compound I-1-71], the EC150 is reported as 4.33 nM and the Emax amounted to 340%.

For `O[C@@H]1CO[C@H]2[C@@H]1OC[C@H]2Oc1cc2nc(-c3ccc(-c4ccc(Oc5ccncc5)cc4)cc3)c(F)cc2[nH]1` [Compound I-2-45], the EC150 came out at 5 nM and the Emax was 613%.

As to `COCCOc1cc(F)c(-c2ccc(-c3nc4cc(O[C@@H]5CO[C@H]6[C@@H]5OC[C@H]6O)[nH]c4cc3F)cc2)c(F)c1` [Compound I-2-76], the EC150 is 20 nM and the Emax was 490%.

Take `O[C@@H]1CO[C@H]2[C@@H]1OC[C@H]2Oc1cc2nc(-c3ccc(C4=CCN(C5=NCCO5)CC4)cc3)c(F)cc2[nH]1` [Compound I-1-51]: the EC150 is 12 nM and the Emax stood at 486%.

For `CCOC(=O)NC1CCN(c2ccc(-c3nc4cc(O[C@@H]5CO[C@H]6[C@@H]5OC[C@H]6O)[nH]c4cc3F)cc2)CC1` [Compound I-1-10], the EC150 came out at 13 nM and the Emax was determined as 490%.

As for `COc1cc(-c2ccc(N=S3(=O)CCCC3)cc2)ccc1-c1nc2cc(O[C@@H]3CO[C@H]4[C@@H]3OC[C@H]4O)[nH]c2cc1F` [Compound I-1-20], the EC150 came out at 8.3 nM and the Emax was 457%.

Regarding `CC(=O)NC1CC=C(c2ccc(-c3nc4cc(O[C@@H]5CO[C@H](CO)C5)[nH]c4cc3F)cc2)CC1` (stereo partly drawn) [Compound I-2-92], the EC150 is 0.87 nM and the Emax stood at 702%.

Regarding `CNCCOc1ccc(-c2ccc(-c3nc4cc(O[C@@H]5CO[C@H]6[C@@H]5OC[C@H]6O)[nH]c4cc3F)cc2)cc1` [Compound I-1-69], the EC150 amounted to 1.6 nM and the maximal response (Emax) was determined as 359%.

Regarding `CP(C)(=O)c1ccc(-c2ccc(-c3nc4cc(O[C@@H]5CO[C@H](CO)C5(F)F)[nH]c4cc3F)cc2)cc1` [Compound I-2-89], the EC150 was determined as 0.94 nM and the Emax worked out at 556%.

On to `NC(=O)c1ccc(-c2ccc(-c3nc4cc(O[C@@H]5CO[C@H]6[C@@H]5OC[C@H]6O)[nH]c4cc3F)cc2)cc1F` [Compound I-1-52], for which the EC150 is 2.2 nM and the Emax is 469%.

For the molecule `CC(=O)N(C)c1ccc(-c2ccc(-c3nc4cc(O[C@@H]5CO[C@H]6[C@@H]5OC[C@H]6O)[nH]c4cc3F)cc2)cc1` [Compound I-1-36], the EC150 was 1.7 nM and the Emax was determined as 437%.

`O[C@@H]1CO[C@H]2[C@@H]1OC[C@H]2Oc1cc2nc(-c3ccc(-c4ccc(O[C@H]5CCOC5)cc4)cc3)c(F)cc2[nH]1` [Compound I-2-85]: the EC150 was found to be 1.5 nM and the Emax stood at 500%.

Turning to `O=C1CCCN1c1ccc(-c2ccc(-c3nc4cc(O[C@@H]5CO[C@H]6[C@@H]5OC[C@H]6O)[nH]c4cc3F)cc2)cc1` [Compound I-1-37], the EC150 turned out to be 6.5 nM and the Emax amounted to 405%.

Regarding `O[C@@H]1CO[C@H]2[C@@H]1OC[C@H]2Oc1cc2nc(-c3ccc(-c4ccc(OC5CNC[C@H]5F)cc4)cc3)c(F)cc2[nH]1` (stereo partly drawn) [Compound I-2-28], the EC150 was 4.4 nM and the Emax came to 398%.

Regarding `CCP(=O)(CC)c1ccc(-c2ccc(-c3nc4cc(O[C@@H]5CO[C@H]6[C@@H]5OC[C@H]6O)[nH]c4cc3F)cc2)cc1` [Compound I-2-72], the EC150 is 2.7 nM and the Emax came to 591%.

With `O[C@@H]1CO[C@H]2[C@@H]1OC[C@H]2Oc1cc2nc(-c3ccc(-c4ccc(C5=NCCN5)cc4)cc3)c(F)cc2[nH]1` [Compound I-1-38], the EC150 is 0.99 nM and the Emax came to 470%.

`O=C(C1CCN(c2ccc(-c3nc4cc(O[C@@H]5CO[C@H]6[C@@H]5OC[C@H]6O)[nH]c4cc3F)cc2)CC1)N1CCCC1` [Compound I-2-44]: the EC150 came out at 35 nM and the Emax worked out at 661%.

For `O=C1NCCN1c1ccc(-c2ccc(-c3nc4cc(O[C@@H]5CO[C@H]6[C@@H]5OC[C@H]6O)[nH]c4cc3F)cc2)cc1` [Compound I-1-58], the EC150 amounted to 1.3 nM and the Emax is 494%.

As to `CC(C)(O)/C=C/c1ccc(-c2ccc(-c3nc4cc(O[C@@H]5CO[C@H]6[C@@H]5OC[C@H]6O)[nH]c4cc3F)cc2)cc1` [Compound I-2-15], the EC150 came to 11 nM and the Emax amounted to 505%.

In the case of `CCOCCOc1ccc(-c2ccc(-c3nc4cc(O[C@@H]5CO[C@H]6[C@@H]5OC[C@H]6O)[nH]c4cc3F)cc2)cc1` [Compound I-2-61], the EC150 is on record as 5.1 nM and the Emax is 562%.

In the case of `CC(=O)Nc1ccc(-c2ccc(-c3nc4cc(O[C@@H]5CO[C@H]6[C@@H]5OC[C@H]6O)[nH]c4cc3F)cc2)cc1` [Compound I-1-35], the EC150 was 5.9 nM and the Emax came out at 432%.

As to `O=C(c1ccc(-c2ccc(-c3nc4cc(O[C@@H]5CO[C@H](CO)C5(F)F)[nH]c4cc3F)cc2)cc1)N1CCOCC1` [Compound I-2-97], the EC150 is listed as 4.6 nM and the Emax worked out at 527%.

For `O[C@@H]1CO[C@H]2[C@@H]1OC[C@H]2Oc1cc2nc(-c3ccc(-c4ccc(OCC5CCCO5)cc4)cc3)c(F)cc2[nH]1` (stereo partly drawn) [Compound I-2-33], the EC150 is 20 nM and the Emax amounted to 362%.

As for `CN1CCC(Oc2ccc(-c3ccc(-c4nc5cc(O[C@@H]6CO[C@H]7[C@@H]6OC[C@H]7O)[nH]c5cc4F)cc3)cc2)C1` (stereo partly drawn) [Compound I-1-26], the EC150 is on record as 1.5 nM and the Emax was found to be 353%.

For the molecule `CP(C)(=O)c1ccc(-c2ccc(-c3nc4cc(O[C@@H]5CO[C@H](CO)C5)[nH]c4cc3F)cc2)cc1` [Compound I-2-65], the EC150 was determined as 0.6 nM and the Emax is 673%.

Regarding `O=C(Nc1ccc(-c2ccc(-c3nc4cc(O[C@@H]5CO[C@H]6[C@@H]5OC[C@H]6O)[nH]c4cc3F)cc2)cc1)[C@@H]1C[C@@H]1F` [Compound I-2-05], the EC150 is 6.8 nM and the Emax amounted to 632%.

In the case of `CS(=O)(=O)Nc1ccc(-c2ccc(-c3nc4cc(O[C@@H]5CO[C@H]6[C@@H]5OC[C@H]6O)[nH]c4cc3F)cc2)cc1` [Compound I-1-53], the EC150 came out at 1.6 nM and the Emax was found to be 533%.

As to `COCCOc1ccc(-c2ccc(-c3nc4cc(O[C@@H]5CO[C@H]6[C@@H]5OC[C@H]6O)[nH]c4cc3F)cc2)cc1F` [Compound I-2-59], the EC150 came to 40 nM and the Emax was found to be 458%.

As to `COc1ccc(-c2ccc(-c3nc4cc(O[C@@H]5CO[C@H]6[C@@H]5OC[C@H]6O)[nH]c4cc3F)cc2)cc1` [Compound I-2-24], the EC150 stood at 11 nM and the Emax is 364%.
